PubChem BioAssay AID2384 (Southern Research Specialized Biocontainment Screening …, 2010)

System: S. typhi GFP reporter counter-screen, fluorescence, 4 h
Experiment: S. typhi counter-screen signal inhibition – fluorescence, 4 h, counter-screen for PhoP regulon inhibitor project, dose response (AID 2384)

Compound	IC50
Cc1cccc(Nc2c3c(nc4ccccc24)CCC3)c1	60.3 µM
C[C@H]1COc2c(C3(N)CC3)c(F)cc3c(=O)c(C(=O)O)cn1c23	0.9 µM
COc1ccc(C(C[N+](=O)[O-])C2(c3ccc(OC)c(OC)c3)C(=O)c3ccccc3C2=O)cc1 (centres undefined)	18.2 µM
Nc1nc2ccccc2n1Cc1ccc(Cl)c(Cl)c1	74.7 µM
CCCCCc1ccc(OCCC[n+]2ccccc2)c(CCCCC)c1	32.9 µM
CCOC(=O)c1c(-c2ccccc2)oc2ccc(OCC(O)CNCCN(C)C)cc12 (centres undefined)	36.8 µM
O=C(/C=C/c1ccccc1Cl)Nc1cccc(O)c1	49.8 µM
CC[n+]1c(/C=C/C=C/c2ccc(N(C)C)cc2)sc2ccccc21	128 µM
Cc1ccc(C[n+]2c(-c3ccc(C)cc3)cc(-c3ccc(C)cc3)cc2-c2ccc(C)cc2)cc1	15.6 µM
CN(CCOc1ccc(Cl)cc1)CC(O)c1ccccc1 (centres undefined)	126 µM
COc1ccc(C(=O)NC(=S)NNC(=O)c2cccc(C)c2)cc1	48.8 µM
Cc1ccc(C)c(NC(=O)c2ccccc2O)c1	58.1 µM
OC(CN1CCCCC1)Cn1c2ccccc2c2cc(Br)ccc21 (centres undefined)	37.8 µM
CC(C)N1CSC(=S)N(Cc2ccccc2)C1	49.4 µM
Cc1ccc(C(=O)N/N=C\c2sccc2C)cn1	136 µM
N=c1c2c(-c3ccccc3)c(-c3ccccc3)n(Cc3ccco3)c2ncn1CCCn1ccnc1	39.4 µM
COc1ccccc1N1CCN(Cc2ccc(O)c3ncccc23)CC1	32.5 µM
COC(=O)C1=C(C)N(Cc2ccccc2)C(=NCc2cccc(C(F)(F)F)c2)N[C@H]1c1cccc(F)c1	35.3 µM
O=C(CN1CCCC1)Nc1ccc(-c2nc3cc(NC(=O)CN4CCCC4)ccc3o2)cc1	57.1 µM
CN(C)CCCNC(=S)NCC(c1ccc(Cl)cc1Cl)c1c[nH]c2ccccc12 (centres undefined)	26.4 µM
CCCCCCCCNC(C)C(O)c1ccc(SC(C)C)cc1 (centres undefined)	30.7 µM
O=[N+]([O-])c1cc(CN2CCN(c3cccc(C(F)(F)F)c3)CC2)c2cccnc2c1O	23.1 µM
Cc1cc(Cl)c(OCCCNCc2ccccc2)c(Br)c1	37.5 µM
CN(C)CCCNc1c2ccccc2nc2ccccc12	40.7 µM
O=C(CCC(=O)Nc1ccc(Cl)cc1Cl)N/N=C/c1ccc([N+](=O)[O-])o1	29 µM
O=C(NC1CCCC1)c1ccc(Br)s1	49.5 µM

Compound	IC50
C#CCOCCOCCOCCNc1nc(N2CCN(C(=O)CCCCCCCCCCNC(=O)Cn3cc(CCCCCN)nn3)CC2)nc(N2CCN(C(=O)CCCCCCCCCCNC(=O)[C@@H]([C@H](C)O)n3cc(C)nn3)CC2)n1	115 µM
N/C(=N\OS(=O)(=O)c1ccccc1)c1cccnc1	12.4 µM
COc1cc(CNCCc2ccccc2)cc(Cl)c1OCc1ccccc1	37.6 µM
O=C(CCc1ccccc1)NNC(=O)c1ccccn1	57.8 µM
C#CCOCCOCCOCCNc1nc(N2CCN(C(=O)[C@H](Cc3ccc(O)cc3)n3cc([C@@H](N)CC(C)C)nn3)CC2)nc(N2CCN(C(=O)[C@H](Cc3cc4ccccc4[nH]3)n3cc([C@@H](N)CC(C)C)nn3)CC2)n1	41.8 µM
O=C(CCc1ccccc1)NNC(=S)NC(=O)c1ccccc1	63 µM
Cc1cc(C2CCCCC2)n(O)c(=O)c1	13.7 µM
Nc1cccc2c(=O)c3ccccc3[nH]c12	37.6 µM
O=C(/C=C/c1ccccc1)c1ccc(NC2=NCCCS2)cc1	67.3 µM
CCOC(=O)N1CCN(CCC(=O)c2ccc(Br)cc2)CC1	82.3 µM
CCC(C)NC(=O)c1cn(CC)c2cc(N3CCN(C)CC3)c(F)cc2c1=O (centres undefined)	38.2 µM
c1ccc(CN2CCC(N3CCN(Cc4ccc5c(c4)OCO5)CC3)CC2)cc1	150 µM
O=C(Nc1cccc(Br)c1)c1cc2ccccc2o1	83.3 µM
CCCCCCCCCn1c2c(c(=N)c3c1CCC3)CCC2	10.6 µM
C#CCOCCOCCOCCNc1nc(N2CCN(C(=O)CCCCCCCCCCNC(=O)[C@H](CCCCN)n3cc(C)nn3)CC2)nc(N2CCN(C(=O)CCCCCCCCCCNC(=O)[C@H](CCCN=C(N)N)n3cc(C[C@@H](C)CC)nn3)CC2)n1	20.7 µM
NC1=NC[C@@H](Cc2ccc(O)cc2)N1CCc1cc(C(F)(F)F)cc(C(F)(F)F)c1	41.7 µM
Cc1cc(C)nc(/N=C(\N)Nc2ccc(SC(F)F)cc2)n1	51.3 µM
Nc1ncncc1-c1ccc([N+](=O)[O-])cc1	43.9 µM
CC(NCc1ccc(Cl)c(Cl)c1)C(O)c1ccccc1 (centres undefined)	29.8 µM
O=C1c2c(O)ccc(O)c2C(=O)c2c(NCCNCCO)ccc(NCCNCCO)c21	86.5 µM
O=C(N/N=C/c1ccc([N+](=O)[O-])s1)C(O)c1ccccc1 (centres undefined)	32.1 µM
N=C(N)c1ccc(/C=C/c2ccc(C(=N)N)cc2O)cc1	10.5 µM
CCC(C)(C)c1ccc(OCCCC[n+]2ccccc2)c(C(C)(C)CC)c1	35.3 µM
CC1CCC(C(C)C)C(OC(=O)Cn2c(-c3ccc(Cl)cc3)[n+](C)c3ccccc32)C1 (centres undefined)	38.3 µM
CCN1CCN(Cc2ccc(NC(=O)c3ccc(C)c(NC(=O)c4c[nH]c5cc(C(F)(F)F)ccc5c4=O)c3)cc2C(F)(F)F)CC1	34.9 µM
Cc1ccc(NC2=NCCCS2)cc1Cl	126 µM

Compound	IC50
O=C(C[n+]1cc(-c2ccc(Cl)cc2)n2c1CCC2)N1c2ccccc2Sc2ccccc21	50.9 µM
Nc1c(Cl)ncnc1N/N=C/c1ccccn1	32.9 µM
CCCCN(CCCC)C(=O)c1cn(CC)c2cc(N3CCN(C)CC3)c(F)cc2c1=O	15.7 µM
CCCCCOc1ccc(CSC2=NCCN2)cc1[N+](=O)[O-]	32 µM
NC1=NC[C@@H](Cc2ccc(O)cc2)N1CCCCC1CCCCC1	14.8 µM
COC(=O)N/N=C/c1c[n+]([O-])c2ccccc2[n+]1[O-]	92.1 µM
COc1cc(CNCCc2c[nH]c3ccccc23)ccc1OCc1ccccc1F	70.8 µM
Nc1c2ccccc2nc2ccccc12	39.5 µM
CCc1ccc(NC(=O)C[n+]2cc(-c3ccc(C)cc3)n3c2CCC3)cc1	37.2 µM
CN(C)c1ccc(/C=C/c2ccc3ccccc3[n+]2C)cc1	19.1 µM
O=C(Nc1cccc(NC(=O)c2ccccc2Cl)c1)c1ccc([N+](=O)[O-])o1	100 µM
CN1CCN(c2nc3cc(C(F)(F)F)ccc3n3cccc23)CC1	42.4 µM
Cc1ccc(C(c2cc(Cl)c3cccnc3c2O)N2CCN(C)CC2)cc1 (centres undefined)	30.4 µM
CS(=O)(=O)c1ccc([C@@H](O)[C@@H](CO)NC(=O)C(Cl)Cl)cc1	18 µM
Clc1ccc(C(c2ccccc2)N2CCNCC2)cc1 (centres undefined)	97.5 µM
Cc1ccc(C)c(N/C(N)=N/c2nc(C)cc(C)n2)c1	67.4 µM
Clc1cc(Br)ccc1OCCCNCc1ccccc1	39.3 µM
COc1ccc(/C=C/c2cc[n+](C(=O)Cc3ccccc3)cc2)cc1	65.3 µM
C=CCNc1ncnc2c1[nH]c1ccc(Cl)cc12	37.2 µM
C=C1c2c(Cl)ccc(O)c2C(O)=C2C(=O)[C@]3(O)C(O)=C(C(N)=O)C(=O)[C@@H](N(C)C)[C@@H]3[C@@H](O)C12 (some centres undefined)	0.24 µM
CCCCCCCCCCCCCCCC[n+]1ccc(C(N)=O)cc1	9.85 µM
COC(=O)C1C(O)C(C)C(O)C(C)(O)/C=C\C=C(/C)C(=O)Nc2c(C)c(OC(C)=O)c3c(c2O)C(=O)C(C)=C2OCOC(=C23)/C(C)=C/C(C)(O)C(O)C(C)C1O (centres undefined)	23.9 µM
Fc1ccc([C@@H]2CCNC[C@H]2COc2ccc3c(c2)OCO3)cc1	19.2 µM
CN(C)CCCNc1cc(C(C)(C)C)nc2c(-c3ccccc3)cnn12	31.5 µM
COc1ccc(/C=N/Nc2cc(C)nc3c(C)cccc23)cc1	40.7 µM
Clc1ccc(Nc2ccc(NCc3ccccc3)nn2)cc1	90.7 µM

Compound	IC50
Nc1ncn(C2O[C@H](CO)[C@@H](O)[C@H]2O)c(=O)n1 (some centres undefined)	35.2 µM
Cc1cc(C)c(OCCCCNCc2ccccc2)c(Cl)c1	61.3 µM
COc1nsnc1NS(=O)(=O)c1ccc(NC(=S)NC(=O)c2cccnc2)cc1	68.5 µM
CCN1CCCC1CNC(=O)C1CCN(Cc2nc(-c3cccc(Br)c3)oc2C)CC1 (centres undefined)	33.3 µM
COc1ccc(N2CC(C(=O)N/N=C/c3cc([N+](=O)[O-])ccc3O)CC2=O)cc1 (centres undefined)	93.2 µM
O=C(CCNC(=O)c1ccco1)Nc1ccc(SC(F)F)cc1	93.7 µM
Cc1ccc(NC(=O)c2ccc([N+](=O)[O-])o2)c(C)c1	67.9 µM
C#CCOCCOCCOCCNc1nc(N2CCN(C(=O)CCCCCCCCCCNC(=O)[C@H](CO)n3cc(CCCCCN)nn3)CC2)nc(N2CCN(C(=O)CCCCCCCCCCNC(=O)[C@H](CCCN=C(N)N)n3cc(C[C@@H](C)CC)nn3)CC2)n1	19.5 µM
O=C(N/N=C/c1ccccc1O)c1ccncc1	20.5 µM
C#CCOCCOCCOCCNc1nc(N2CCN(C(=O)CCCCCCCCCCNC(=O)[C@H]([C@@H](C)CC)n3cc(CCCCN=C(N)N)nn3)CC2)nc(N2CCN(C(=O)CCCCCCCCCCNC(=O)[C@H](CO)n3cc(CCCCCN)nn3)CC2)n1	35.2 µM
Cc1ccc(S(=O)(=O)NNc2ccccc2)c(C)c1	42.7 µM
O=C(OCC(=O)N1CCOCC1)c1ccc[nH]c1=O	10.9 µM
O=C(CCN1CCN(C(=O)c2ccccc2)CC1)c1ccc(Br)cc1	81.6 µM
O=C(CC(=O)c1c(F)cccc1Cl)c1ccccc1O	42.9 µM
CCN1CCN(Cc2ccc(NC(=O)c3cc(NC(=O)c4cc(-c5ccc(OC)cc5)n[nH]4)cc(OC)c3)cc2C(F)(F)F)CC1	145 µM
Cc1ccc2nc(/C(C#N)=C\c3ccc([N+](=O)[O-])o3)[nH]c2c1	95.9 µM
Nc1cc2c3c(cccc3c1)C(=O)N(CCN1CCCC1)C2=O	129 µM
CCCOc1ccc(S(=O)(=O)n2cc(F)c(=O)[nH]c2=O)cc1	139 µM
OCCN1CCN(CCCN2c3ccccc3Sc3ccc(C(F)(F)F)cc32)CC1	75.1 µM
N#C/C(=N\Nc1ccc([N+](=O)[O-])cc1)C(N)=S	108 µM
Cc1cccn2c(=O)c(C=O)c(Cl)nc12	145 µM
O=C(/C=C/c1ccccc1)NC(=S)NNC(=O)c1cnccn1	20.9 µM
CCOC(=O)N1CCN(Cc2cc(Cl)c3cccnc3c2O)CC1	47.4 µM
CN1CCN(CC(=O)N2CCn3c4c(c5cc(C6CCCCC6)ccc53)CCCC42)CC1 (centres undefined)	36.9 µM
C#CCOCCOCCOCCNc1nc(N2CCN(C(=O)[C@H](Cc3cc4ccccc4[nH]3)n3cc([C@@H](N)C(C)CC)nn3)CC2)nc(N2CCN(C(=O)[C@H](Cc3cc4ccccc4[nH]3)n3cc([C@@H](N)CC(C)C)nn3)CC2)n1 (some centres undefined)	24.1 µM
C#CCOCCOCCOCCNc1nc(N2CCN(C(=O)CCCCCCCCCCNC(=O)Cn3cc(CCCCCN)nn3)CC2)nc(N2CCN(C(=O)CCCCCCCCCCNC(=O)[C@H]([C@@H](C)CC)n3cc(CCCCCN)nn3)CC2)n1	38.8 µM
